{"source": "patent US20230323292A1", "about": "“METHODS FOR PRODUCING A (THREE DIMENSIONAL) NEURAL TISSUE” (TECHNISCHE UNIVERSITEIT EINDHOVEN, priority 2020, published 2023)", "system": "MARC-produced cerebral tissues", "test": "Live calcium imaging of interconnected MARC-produced cerebral tissues in the iS3CC chip after Penicillin G treatment of one chamber", "format": "cell-based, human", "experimental": "The transparent PDMS devices were repeatedly washed using 70% ethanol followed by sterilization using UV light in the safety cabinets (3×5 min). After neuronal induction phase, the cells were disassociated using Accutase and resuspended in 35 μl of a mixture of cold GFR-Matrigel and differentiation medium with a 70:30 v/v ratio at a final concentration of 50,000 cells per chamber. The chips containing cells and Matrigel-medium mixture were placed in a Petri dish to prevent contamination, since the chips have an open top, and kept in an incubator at 37° C. and 5% CO2 for 5 min to polymerize the Matrigel mixture. After that, an additional 200 μl of differentiation medium was added to each chamber and the chips were placed back into the incubator. The medium was refreshed and the culture was continued as described above, with gentler handing to prevent damage to the gel and cells.\nLive calcium imaging was performed with the same widefield epifluorescence microscope, equipped with temperature, CO2, and humidity control. The tissues were incubated in the recommended concentrations of Fluo-4 direct according to the manufacturer (Molecular Probes, F10471) for 50 min in the incubator at 37° C. and 10 min at room temperature. After that, the tissues were washed five times with the neural maintenance medium. The calcium surges were recorded using an excitation of 488 nm and an emission of 530 nm every 10 seconds. Fluorescence images were obtained using a widefield epifluorescence microscope (Leica DMi8) equipped with either a 5×/0.15 HC PL Fluotar or a 10×/0.32 HC PL Fluotar objective lens. […]\nNeuronal activity was analyzed from the time-lapse images. To account for possible drifts or deformations of the tissues, the location of the cells was detected in each frame and linked across the frames using the Mosaic particle tracker plugin in ImageJ. The fluorescence intensity of each detected cell was calculated from the image intensity data using MATLAB. Occasional gaps in the time traces, due to the cells not being detected in certain frames, were filled using spline interpolation of the intensity values. The background fluorescence in each chamber was calculated in the same way using 10 arbitrarily selected cell-sized ROIs in the cell-free regions of each chamber, averaged, and subtracted from the real (cell) data. Further, the intensity values were corrected for imaging artifacts due to out-of-focus fluorescence by subtracting the mean intensity of an annular mask with an outer radius of 18 pixels and an inner radius of 9 pixels (i.e., size of the ROI) for each ROI. […]", "note": "Counter-ions that a name gives are not always drawn."}
{"smiles": "CC1(C)S[C@@H]2[C@H](NC(=O)Cc3ccccc3)C(=O)N2[C@H]1C(=O)O", "note": "[Penicillin G, Penicillin G sodium salt]", "values": [{"measurement": "propagation of synchronized transient peaks from treated tissue to cells in the untreated tissue (share of the time)", "setting": "4 cells per tissue, post-treatment with Penicillin G (FIG. 4e,f)", "value": "~45", "unit": "%"}, {"measurement": "fluorescence in the treated tissue compared to the baseline", "setting": "treated chamber, immediately following treatment, Penicillin G sodium salt 100 mg/ml bath application, Fluo-4 calcium imaging", "value": "increased amount of fluorescence"}, {"measurement": "neuronal activity and synchrony of transient spikes in the treated tissue", "setting": "treated chamber, post-treatment, Penicillin G 100 mg/ml, indicative for abnormal excessive discharges", "value": "increased magnitude and frequency of neuronal activity, as well as synchrony of transient spikes"}, {"measurement": "intensity and neuronal activity of neurons in the untreated chamber", "setting": "untreated chamber connected across 8 μm porous membrane, post-treatment of the other chamber", "value": "increased intensity and neuronal activity"}]}
